Source: patent publication EP1827382B1, “NOVEL GALENIC SYSTEM FOR ACTIVE PRINCIPLE TRANSPORT, PREPARATION METHOD AND USE” (Capsugel France, priority 2004, dated 2006)

Assay: Resistance test in acid medium (omeprazole content after neutralisation, over time)
Assay type: physicochemical
Details: stirred medium pH 1,2, 37,5°C; omeprazole assayed by HPLC after neutralisation to pH=6,8, over time; figure 1
Experimental: Pour déterminer la résistance au pH acide, les préparations sont placées en milieu agité à pH 1,2 à 37,5°C. La résistance au pH acide est déterminée par le dosage du taux d'Oméprazole après neutralisation à pH=6,8 en fonction du temps.
L'Oméprazole est dosée par HPLC après extraction.

## COc1ccc2[nH]c([S+]([O-])Cc3ncc(C)c(OC)c3C)nc2c1 (stereo not shown) [Oméprazole libre, Oméprazole]
  résistance au pH acide: dégradé en quelques minutes
